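Protocol summary: plate cells (96-well), add compound at 5 concentrations, incubate 48 h, interpolate endpoints linearly. GI50 marks 50% less growth.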 Calls of active or inactive are those of the source. Cut-off read from the data, not from the text of the source: active = GI50 up to about 1.1 µM and inactive = higher.
How the values were obtained:
Experiment in all cases: NCI-60 cell line screen, 48 h
SF-295 = system: SF-295
OVCAR-4 = system: OVCAR-4
Malme-3M = system: Malme-3M
HCT-15 = system: HCT-15
RPMI-8226 = system: RPMI-8226
HCT-116 = system: HCT-116
RXF 393 = system: RXF 393
BT-549 = system: BT-549
LOX IMVI = system: LOX IMVI
EKVX = system: EKVX
SNB-19 = system: SNB-19
SF-539 = system: SF-539
MDA-N = system: MDA-N
DU-145 = system: DU-145
K562 = system: K562
M14 = system: M14
OVCAR-3 = system: OVCAR-3
CCRF-CEM = system: CCRF-CEM
SK-MEL-28 = system: SK-MEL-28

Compound	GI50 (SF-295)	GI50 (OVCAR-4)	GI50 (Malme-3M)	GI50 (HCT-15)	GI50 (RPMI-8226)	GI50 (HCT-116)	GI50 (RXF 393)	GI50 (BT-549)	GI50 (LOX IMVI)	GI50 (EKVX)	GI50 (SNB-19)	GI50 (SF-539)	GI50 (MDA-N)	GI50 (DU-145)	GI50 (K562)	GI50 (M14)	GI50 (OVCAR-3)	GI50 (CCRF-CEM)	GI50 (SK-MEL-28)
CC(C)(C)COS(=O)OCC(C)(C)C	> 100 µM (inactive)	> 100 µM (inactive)	> 100 µM (inactive)	> 100 µM	> 100 µM (inactive)	> 100 µM (inactive)	> 100 µM (inactive)	> 100 µM (inactive)	> 100 µM (inactive)	> 100 µM (inactive)	> 100 µM (inactive)	> 100 µM (inactive)	> 100 µM (inactive)	> 100 µM (inactive)	> 100 µM (inactive)	> 100 µM (inactive)	> 100 µM (inactive)	> 100 µM (inactive)	> 100 µM (inactive)
CC1=NN(C(=O)CC(=O)NC(=O)/C=C\c2ccccc2)C(=O)C1/N=N/c1ccc([N+](=O)[O-])cc1 (stereo not given)	53.6 µM (inactive)	–	> 100 µM (inactive)	> 100 µM	85.5 µM (inactive)	35.6 µM (inactive)	> 100 µM (inactive)	19.1 µM (inactive)	> 100 µM (inactive)	46.9 µM (inactive)	> 100 µM (inactive)	> 100 µM (inactive)	> 100 µM (inactive)	55.7 µM (inactive)	53.2 µM (inactive)	> 100 µM (inactive)	50.7 µM (inactive)	42 µM (inactive)	> 100 µM (inactive)
Cc1n[nH]c(=O)n1/N=C/c1cccs1	> 100 µM (inactive)	> 100 µM (inactive)	> 100 µM (inactive)	> 100 µM	> 100 µM (inactive)	> 100 µM (inactive)	> 100 µM (inactive)	> 100 µM (inactive)	> 100 µM (inactive)	> 100 µM (inactive)	> 100 µM (inactive)	> 100 µM (inactive)	> 100 µM (inactive)	> 100 µM (inactive)	> 100 µM (inactive)	> 100 µM (inactive)	> 100 µM (inactive)	> 100 µM (inactive)	> 100 µM (inactive)
O=C(C=P(c1ccccc1)(c1ccccc1)c1ccccc1)c1ccc(-c2cccs2)cc1	4.17 µM (inactive)	2.36 µM (inactive)	4.46 µM (inactive)	6.61 µM	2.25 µM (inactive)	3.74 µM (inactive)	3.11 µM (inactive)	20.5 µM (inactive)	4.57 µM (inactive)	2.61 µM (inactive)	2.96 µM (inactive)	3.97 µM (inactive)	3.22 µM (inactive)	8.73 µM (inactive)	3.59 µM (inactive)	2.57 µM (inactive)	2.9 µM (inactive)	4.56 µM (inactive)	3.41 µM (inactive)
Nc1nc(Cl)cc(NCC2(O)CC2)n1	> 100 µM (inactive)	> 100 µM (inactive)	> 100 µM (inactive)	> 100 µM	> 100 µM (inactive)	> 100 µM (inactive)	> 100 µM (inactive)	> 100 µM (inactive)	> 100 µM (inactive)	> 100 µM (inactive)	> 100 µM (inactive)	> 100 µM (inactive)	> 100 µM (inactive)	> 100 µM (inactive)	> 100 µM (inactive)	–	> 100 µM (inactive)	> 100 µM (inactive)	> 100 µM (inactive)
O=C1C=CC2(C=C1)O[C@H](CCc1ccccc1)[C@@H](CCc1ccccc1)O2	> 100 µM (inactive)	85.5 µM (inactive)	> 100 µM (inactive)	> 100 µM	82 µM (inactive)	99.3 µM (inactive)	24.3 µM (inactive)	> 100 µM (inactive)	12.3 µM (inactive)	24 µM (inactive)	> 100 µM (inactive)	> 100 µM (inactive)	> 100 µM (inactive)	> 100 µM (inactive)	> 100 µM (inactive)	> 100 µM (inactive)	> 100 µM (inactive)	> 100 µM (inactive)	> 100 µM (inactive)
CCOC(=O)C1=C(C)OC(=O)[C@@]2(OC)C=C(Cl)[C@@]12C	> 100 µM (inactive)	> 100 µM (inactive)	> 100 µM (inactive)	> 100 µM	> 100 µM (inactive)	> 100 µM (inactive)	> 100 µM (inactive)	> 100 µM (inactive)	> 100 µM (inactive)	> 100 µM (inactive)	> 100 µM (inactive)	> 100 µM (inactive)	> 100 µM (inactive)	> 100 µM (inactive)	> 100 µM (inactive)	> 100 µM (inactive)	> 100 µM (inactive)	> 100 µM (inactive)	> 100 µM (inactive)
CCOP(=O)(OCC)/C(C#N)=C(\C)c1ccco1	> 10 µM (inactive)	> 10 µM (inactive)	> 10 µM (inactive)	> 10 µM	> 10 µM (inactive)	> 10 µM (inactive)	> 10 µM (inactive)	> 10 µM (inactive)	> 10 µM (inactive)	> 10 µM (inactive)	> 10 µM (inactive)	> 10 µM (inactive)	> 10 µM (inactive)	> 10 µM (inactive)	> 10 µM (inactive)	> 10 µM (inactive)	> 10 µM (inactive)	> 10 µM (inactive)	> 10 µM (inactive)
COC(=O)[C@H]1[C@H](C(=O)OC)[C@@H](C)c2c(ccc3c2[nH]c2ccccc23)[C@@H]1C	18.6 µM (inactive)	38.9 µM (inactive)	49.8 µM (inactive)	> 100 µM	11.8 µM (inactive)	34.6 µM (inactive)	14.1 µM (inactive)	> 100 µM (inactive)	22.6 µM (inactive)	69.8 µM (inactive)	56.4 µM (inactive)	> 100 µM (inactive)	90.8 µM (inactive)	41.5 µM (inactive)	0.9 µM (active)	24.2 µM (inactive)	69.2 µM (inactive)	22.4 µM (inactive)	> 100 µM (inactive)
O=C(O)C1CCCCN1CCc1c[nH]c2ccccc12 (stereo not given)	> 100 µM (inactive)	> 100 µM (inactive)	> 100 µM (inactive)	> 100 µM	> 100 µM (inactive)	> 100 µM (inactive)	> 100 µM (inactive)	> 100 µM (inactive)	> 100 µM (inactive)	> 100 µM (inactive)	> 100 µM (inactive)	> 100 µM (inactive)	> 100 µM (inactive)	> 100 µM (inactive)	> 100 µM (inactive)	> 100 µM (inactive)	> 100 µM (inactive)	> 100 µM (inactive)	> 100 µM (inactive)
COc1ccc2nc3c(nc2c1)C(C)(C)C=C3c1ccc(Br)cc1	–	76.9 µM (inactive)	> 100 µM (inactive)	> 100 µM	> 100 µM (inactive)	> 100 µM (inactive)	> 100 µM (inactive)	> 100 µM (inactive)	> 100 µM (inactive)	> 100 µM (inactive)	> 100 µM (inactive)	97.3 µM (inactive)	> 100 µM (inactive)	> 100 µM (inactive)	> 10 µM (inactive)	> 100 µM (inactive)	–	> 100 µM (inactive)	> 10 µM (inactive)
NCCCCNC1(c2cc3ccccc3s2)CCCCC1	2.84 µM (inactive)	6.76 µM (inactive)	1.88 µM (inactive)	4.54 µM	1.84 µM (inactive)	3.65 µM (inactive)	3.07 µM (inactive)	11.8 µM (inactive)	1.71 µM (inactive)	14.6 µM (inactive)	7.45 µM (inactive)	1.95 µM (inactive)	1.71 µM (inactive)	11.1 µM (inactive)	1.59 µM (inactive)	1.98 µM (inactive)	2.78 µM (inactive)	1.69 µM (inactive)	1.83 µM (inactive)
C=C[C@@H](C)[C@H](NS(=O)(=O)c1ccc(C)cc1)C(=O)OCC	21.2 µM (inactive)	27.2 µM (inactive)	39.7 µM (inactive)	31.3 µM	14 µM (inactive)	35.5 µM (inactive)	42.3 µM (inactive)	76.4 µM (inactive)	19.7 µM (inactive)	30.8 µM (inactive)	74 µM (inactive)	> 100 µM (inactive)	28 µM (inactive)	37.1 µM (inactive)	39.7 µM (inactive)	54.1 µM (inactive)	20.7 µM (inactive)	28.2 µM (inactive)	35.9 µM (inactive)
Cc1nn(-c2ccccc2)c2nc(S)cnc12	> 100 µM (inactive)	> 100 µM (inactive)	> 100 µM (inactive)	–	89.5 µM (inactive)	> 100 µM (inactive)	> 100 µM (inactive)	> 100 µM (inactive)	> 100 µM (inactive)	> 100 µM (inactive)	> 100 µM (inactive)	> 100 µM (inactive)	> 100 µM (inactive)	> 100 µM (inactive)	> 100 µM (inactive)	> 100 µM (inactive)	> 100 µM (inactive)	> 100 µM (inactive)	> 100 µM (inactive)
N=C(N)N/N=C/c1c(-c2ccc(Cl)cc2)nc2sccn12	1.64 µM (inactive)	2.06 µM (inactive)	2.71 µM (inactive)	2.54 µM	2.61 µM (inactive)	1.6 µM (inactive)	1.35 µM (inactive)	3.01 µM (inactive)	1.65 µM (inactive)	14.6 µM (inactive)	4.09 µM (inactive)	1.83 µM (inactive)	1.79 µM (inactive)	3.34 µM (inactive)	2.18 µM (inactive)	1.63 µM (inactive)	1.6 µM (inactive)	1.79 µM (inactive)	1.85 µM (inactive)

— ChEMBL document CHEMBL1201862, “PubChem BioAssay data set” (2004)
